Experimental findings from a melting point compilation (Tetko et al.; mined from patent text by program, amines drawn as free bases though some values may be those of a salt) are described below.

With `C#CCNC(=C[N+](=O)[O-])NCCSCc1csc(NC(=N)N)n1`, the melting point is 82 to 90 °C. Molecule `Cn1nc(Cl)cc(Nc2ccccn2)c1=O` had a melting point of 201 to 202 °C. Next, `CCCCN1C(=O)NC(=C(C)C)C1=O`: 130 °C; `CC(=O)OC1CSC(Oc2cncc(C#N)c2)C(OC(C)=O)C1OC(C)=O` (stereo unspecified): 147 °C; `O=S(=O)(/C=C/c1ccc(F)cc1)Nc1ccc(Cl)cc1`: 126 to 128 °C.

`CCc1nc2cc(/C=C/C(=O)NO)ccc2c(=O)n1CCc1ccc(OC)cc1` registered a melting point of 215 to 217 °C. As to `CCOP(=O)(Cc1ccc(C(=O)N(Cc2ccccc2)c2ccc(Cl)cc2)cc1)OCC`, the melting point was in the range of 81 to 82 °C. Regarding `O=C1c2ccccc2C(=O)N1Cc1noc(CCl)n1`, the melting point lay within 96.5 to 98 °C.

As for `CC(NC(=O)C1=C(C(=O)Nc2cc(OC3CCCCC3)c(Cl)cc2F)CCCC1)c1ccccc1` (stereo unspecified), the melting point is 156 to 159 °C. In turn, `COc1nsc(Cl)c1Cl` gave a melting point of 46 to 48 °C. With `O=C(NCc1cccnc1)c1ccc2n1Cc1ccccc1N(C(=O)c1ccc(-c3ccccc3CN3CCCC3)cc1)C2`, the melting point is 210 to 212 °C. Regarding `CN(CCc1ccc(Nc2ncc3c(n2)-c2ccccc2C(c2cccc(Br)c2)C3)cc1)CCc1ccccn1` (stereo unspecified), the melting point lay within 75 to 77 °C. `COc1cc2c(-c3cc4c(Cl)ccnc4[nH]3)cn(CCN3CCC(CCO)CC3)c2cc1OC`: the melting point was 200 °C. On to `CNC(=O)c1cc(-c2ccc(OC)cc2)nn(CC(=O)Nc2ccc(SC)cc2)c1=O`, for which the melting point was in the range of 231 to 232 °C. Take `Cc1cccc(C2=NN=C(c3ccccc3Cc3ccccc3)NN2)c1`: the melting point was in the range of 162 to 163 °C. `Cc1cccc(NC(=O)NCC(=O)N(Cc2ccccc2)c2ccccc2)c1` had a melting point of 175 °C.

`CCOC(=O)N1CCC(Nc2cc(OC)ccc2[N+](=O)[O-])CC1`: the melting point lay in the range of 115 to 117 °C. In turn, `Cc1cccc(NC(=O)NCC(=O)N(c2ccccc2)C(C(=O)OC(C)(C)C)c2ccc(Cl)c(Cl)c2)c1` (racemic) returned a melting point of 176 °C.

For `CCN1CCN(c2c(F)c(N)c3c(=O)c(C(=O)O)cn(C4CC4)c3c2F)CC1`, the melting point fell in the range of 236 to 237 °C.

`Nc1ccc(NC(=O)[C@@H](NC(=O)c2ccc(C(=O)O)cc2)c2ccccc2)cc1` came in with a melting point of 151 °C. On to `CC(=O)N[C@@H](C)COC1CCN(c2nc3cc(OCC4CC4)ccc3o2)CC1`, for which the melting point is 99 to 100 °C. Molecule `C=CCOC(=O)c1cccc(S(=O)(=O)n2c(=O)[nH]c(=O)c3ccc(Cl)cc32)c1` showed a melting point of 187 to 189 °C. With `COC(=O)CC(NC1CC1)=C(C(=O)OC)C(=O)C(F)(F)F`, the melting point was in the range of 51.5 to 52.5 °C. As for `CS(=O)(=O)c1ccc(C2=C(c3ccccc3)CC2)cc1`, the figure is 73 to 75 °C; as for `CCOC(=O)c1c(C)noc1C(=O)O`, 54 to 58 °C. In turn, `CC(C)CCS(=O)(=O)NC(=O)CCc1cc(C2CC2)nn1Cc1ccc(C(F)(F)F)cc1Cl` returned a melting point of 160 to 162 °C.

As for `COC(=N)NC(=O)Nc1ccc(Cl)cc1`, the melting point fell in the range of 115 to 117 °C. Consider `CCN(CC)CCOc1ccc(-c2oc3ccccc3c2C(=O)c2cc(C)c(OC)c(C)c2)cc1`, for which the melting point is 130 to 133 °C. As to `CCOC(=O)c1cn(CCCN(C)C)c2nn(C)cc2c1=O`, the melting point is 120 to 121 °C. As for `COc1ccc(Cl)cc1C1(O)C(=O)Nc2cc(C(F)(F)F)ccc21` (stereo unspecified), the figure is 207 to 210 °C. The molecule `Cc1ccc(Br)cc1-c1c(O)c(C)nn(C)c1=O` showed a melting point of 217 to 218 °C.

`CCC(=O)n1c(=O)oc2ccccc21` displayed a melting point of 88 to 90 °C. Turning to `COc1cc(N)c(Cl)cc1C(=O)NC1CCN2CCCC2C1` (stereo unspecified), the melting point was in the range of 193 to 194 °C. `COc1cc2c(cc1O)CC(C)(C)N=C2`: the melting point is 152 to 157 °C. The molecule `O=C(O)Cc1cccc(NC(=O)NCC(=O)N2[C@@H](c3cccc(O)c3)CC[C@H]2c2ccccc2)c1` (racemic) registered a melting point of 166 °C.

Consider `CC1Cc2cc3c(cc2C(c2ccc([N+](=O)[O-])cc2)=NN1c1nncs1)OCO3` (stereo unspecified), for which the melting point is 212 to 213 °C. With `CCCCCCNc1ccncc1`, the melting point lay in the range of 68 to 70 °C. `CCCNC(=O)Nc1cc(-c2c(-c3ccc(F)cc3)nc3cccnn23)ccn1` gave a melting point of 219 to 220 °C. As for `CS(=O)(=O)c1ccc(-c2cnn(CC(F)(F)F)c(=O)c2OC2CCc3ccccc32)cc1` (stereo unspecified), the melting point lay within 113 to 114 °C.

As to `COC1(OC)CCN(c2nc3c(cc2F)C=C(C(=O)O)CN3c2ccc(F)cc2F)C1`, the melting point was 205 to 206 °C. Next, `COc1c(NC(=O)c2cc3cccc(NC(=O)c4ccc(N)nc4)c3s2)cc(C(C)(C)C)cc1NS(C)(=O)=O`: 234 to 235 °C. For the molecule `CCOC(=O)C(=O)Nc1nc2c(OC)ccc(-c3ccccc3)c2s1`, the melting point is 138 to 142 °C. As for `CCOc1c(C(=O)c2cccs2)cnc2c1cnn2Cc1ccco1`, the figure is 85 to 87 °C; as for `COc1ccc(C=CC(=O)N(C)O)cc1OC`, 150 °C; as for `O=C1CCC(c2ccc3[nH]c(C(=O)O)cc3c2)=NN1`, 185 to 187 °C. With `CNC(=O)c1cc(-c2ccc(OC)cc2)nn(C(C)C)c1=O`, the melting point was determined as 154 °C. Take `Fc1ccc2c(C3CCN(CCCOc4ccccc4)CC3)noc2c1`: the melting point lay within 78 to 80 °C. As for `NC[C@@H](O)[C@H](Cc1ccccc1)N(Cc1ccccc1)Cc1ccccc1`, the figure is 72 to 76 °C; as for `COc1ccc2c(c1)Sc1cc(OC(C)=O)c(OC)cc1N2`, 172 to 174 °C. As for `COc1cc(OC)nc(Oc2ccccc2C(=O)OC(=O)c2ccccc2Oc2nc(OC)cc(OC)n2)n1`, the figure is 120 to 122 °C; as for `COc1cc2c(cc1OC)N(C(=O)OCc1ccccc1)C(C)CC2=O` (stereo unspecified), 128 to 130 °C; as for `O=C(Nc1ccc(CN2CCOCC2)c2ccccc12)c1cc(F)cc(N2CCOCC2)c1`, 192 to 193 °C.

For `Nc1cc(C(F)(F)F)cc2nc3c4ccccc4c4ccccc4c3nc12`, the melting point was 194 to 195 °C. `Clc1ccc(C2(Cn3ccnc3)OCC(COc3ccc(-c4ccccc4)cc3)O2)c(Cl)c1` (stereo unspecified): the melting point is 156 °C. As for `CCc1cc(CNc2nc3ccccc3o2)c(=S)[nH]c1C`, the figure is 238 to 240 °C. In turn, `CC(C)(O)C(CS(=O)(=O)c1ccccc1)C(F)(F)F` (stereo unspecified) came in with a melting point of 59 to 60 °C. Next, `O=C1c2ccccc2C(=O)N1C(=O)c1cc(Oc2ccc(C(F)(F)F)cc2Cl)ccc1[N+](=O)[O-]`: 160 °C. Turning to `O=c1c2cc(Cl)ccc2nc(CSc2ncnc3[nH]cnc23)n1-c1ccccc1Cl`, the melting point lay in the range of 237 to 238 °C. In the case of `Nc1c(F)c(N2CCC(C(N)c3ccco3)C2)c(F)c2c1c(=O)c(C(=O)O)cn2C1CC1F` (stereo unspecified), the melting point was in the range of 188 to 189 °C. `CC(=O)c1ccc(-c2cc(-c3nc4ccccc4c(=O)n3-c3ccc(Cl)cc3)sc2N2CCOCC2)cc1` had a melting point of 222 to 226 °C.

With `O=C(c1cccs1)C1CCN(Cc2ccccc2)CC1`, the melting point turned out to be 83.9 °C. Regarding `Cc1cc(C)c(-c2cccc3c(O)cc(C)nc23)c(C)c1`, the melting point was more than 250 °C. `COC(=O)C1=C(C)NC(C)=C(C(C)=O)C1c1ccccc1Br` (stereo unspecified) showed a melting point of 146 to 148 °C. `COc1ccc2c(c1)C(=O)OC(=O)C2` gave a melting point of 138 to 140 °C.

For the molecule `O=C1C(=O)c2ccc(-c3ccccc3)cc2C2=C1SCC1(CCN(Cc3ccc(F)cc3)CC1)O2`, the melting point was in the range of 197 to 198 °C.

Regarding `O=c1nc(-c2cccc(S(=O)(=O)Cc3ccccc3)n2)sc2ccccc12`, the melting point was in the range of 217 to 218 °C.

In turn, `CCCCCCCNC(=O)Nc1ccc(C(C)C)cc1C(=O)NCC1CCN(C(c2ccccc2)c2ccccc2)CC1` displayed a melting point of 179 to 180 °C.

With `CSC(C)(C)C(NS(=O)(=O)c1ccc(Oc2ccccc2)cc1)C(=O)O` (stereo unspecified), the melting point was 156 to 158 °C. Next, `Cc1ccc2cccc(OCc3cccc([N+](=O)[O-])c3C)c2n1`: 184 to 188 °C.

Take `CCOC(=O)C(=CNc1ccc(OC)c(=O)cc1)C(=O)OCC`: the melting point lay within 108 to 110 °C.

`CC1CN(c2ccc(N3CC(CNc4nccs4)OC3=O)cc2F)CCC1=CC#N` (stereo unspecified) had a melting point of 75 to 77 °C. On to `Cc1ccc(Sc2ccc(C)cc2)cc1`, for which the melting point is 56.5 °C. `O=C(O)c1cnc2cc3c(cc2c1O)OCO3` returned a melting point of more than 290 °C.

For the molecule `CC#CCOc1ccc(S(=O)(=O)N(C)C(C(=O)O)c2ccc(Cl)cc2)cc1` (stereo unspecified), the melting point fell in the range of 170 to 172 °C. Next, `Cc1sc2c(Br)c3ccccc3c(-c3cc(C(C)C)c(OS(=O)(=O)c4ccc(C(=O)O)c(O)c4)c(C(C)C)c3)c2c1C`: more than 225 °C. Turning to `Nc1sc2c(c1C(=O)c1cccc3ccccc13)CCC2`, the melting point lay in the range of 255 to 257 °C. Consider `O=S(=O)(Nc1ccc2c(OCc3cccc(Br)c3)cccc2c1)C(F)(F)F`, for which the melting point was in the range of 113 to 115 °C.

Regarding `CC(C)COC(=O)ON1C(=O)CCC1=O`, the melting point was 33 to 35 °C. `CCC(=O)N1CCc2ccccc2C(Oc2ccc(C(F)(F)F)cc2)C1` (stereo unspecified) yielded a melting point of 109 to 110 °C.

As to `O=C1Cc2cc3c(cc2C(c2ccco2)=NN1)OCO3`, the melting point lay within 234 to 236 °C. On to `O=C(N[C@H]1CCN(C(=O)c2cc(Cl)cc(Cl)c2)[C@H](Cc2ccccc2)C1)c1cc2ccccc2[nH]1` (relative stereo), for which the melting point is 254 °C.

`CCOc1ccc(C=[N+]([O-])C2CCCC2)cc1` returned a melting point of 95.1 °C.

Turning to `CCCCCCCCCCCCCCOCCCSCCCO`, the melting point was 38 to 41 °C. In turn, `O=C(O)c1cccc(Oc2ccc([N+](=O)[O-])cc2Cl)c1` showed a melting point of 172 to 173 °C.

In turn, `CCOC(=O)c1c(C(F)(F)F)nc(OCC)c(C(N)=O)c1OCC` had a melting point of 103 to 105 °C. Take `CC(=O)NNc1nc(C(F)(F)F)nc(-c2ccc(S(C)(=O)=O)cc2)c1-c1ccccc1`: the melting point lay within 265 to 268 °C.

A word on the melting point: it is the temperature, or range, at which the solid turns liquid.
